The target of assay [1] is T1, CCR5 (Homo sapiens, UniProt P51681). Description: CCR5 receptor occupancy / RANTES-induced CCR5 internalization in PBMCs, flow cytometry. It is filed as cell-based. As to conditions: at saturating concentration. As to the method:
(§1) The capacity of each drug to inhibit CCR5 or CCR2 internalization was evaluated. Cell-surface expression of CCR5 and CCR2 was assessed by flow cytometry, and fluorescence values were converted into molecules of equivalent soluble fluorescence (MESF).

The subject of the next assay is HIV-1 BaL. The assay can be described thus: PM-1 cells exposed to HIV-1 BaL: virus in culture fluids (qRT-PCR, p24) and intracellular strong-stop DNA. It is filed as cell-based. As to conditions: 4 hrs. The source says:
Cells. PM-1 cells that express CD4, CCR5, and CXCR4 were maintained in RPMI-1640 medium containing 10% fetal bovine serum (R10 medium) at 37 C, 5% CO2. 293T cells used for transfection were maintained in DMEM at 10% FBS, L-glutamine, and antibiotics (D10 medium) at 37 C, 5% CO2. Virus Stocks. HIV-1 BaL virus was produced by transfecting 293T cells with the plasmid pWT/BaL. Lipofectamine 2000 was used as a transfection agent. Culture supernatants were collected at 48 hrs post-transfection, filtered through a 0.45 μm pore filter, and treated with 50 units of benzonase per ml of virus stock for 20 minutes at 37 C to remove contaminating plasmid DNA. […]
Both drugs were incubated with PM-1 cells for 1 hr at 37 C prior to the addition of virus. […] Viral adsorption was measured in the no-drug controls, whereby 500 ng of p24 Ag of HIV-1 Bal were added per 5×10^5 PM-1 cells that were pre-incubated at 37 C for 1 hr in the absence of drug treatment. […] Supernatant viral loads were measured using quantitative real-time reverse transcription PCR (qRT-PCR) with the primers US1SSF (5′-ΔΔ[…]-3′), US1SSR (5′-[…]-3′) and US1SS probe (5′-(FAM) […]) and the Invitrogen qRT-PCR Supermix Kit. […] RNA copy number was quantified by use of 10-fold serial dilutions of pBaL/wt to generate standard curves for each assay and calibrated against samples with known copy numbers from previous studies. […]

For another assay, the target named is T2, CCR2 (Homo sapiens, UniProt P41597).
T2 construct: endogenous in cells; host or cells: monocytes within PBMCs from HIV+ and HIV- subjects
T2 sequence (P41597 1-360 isoform P41597-2): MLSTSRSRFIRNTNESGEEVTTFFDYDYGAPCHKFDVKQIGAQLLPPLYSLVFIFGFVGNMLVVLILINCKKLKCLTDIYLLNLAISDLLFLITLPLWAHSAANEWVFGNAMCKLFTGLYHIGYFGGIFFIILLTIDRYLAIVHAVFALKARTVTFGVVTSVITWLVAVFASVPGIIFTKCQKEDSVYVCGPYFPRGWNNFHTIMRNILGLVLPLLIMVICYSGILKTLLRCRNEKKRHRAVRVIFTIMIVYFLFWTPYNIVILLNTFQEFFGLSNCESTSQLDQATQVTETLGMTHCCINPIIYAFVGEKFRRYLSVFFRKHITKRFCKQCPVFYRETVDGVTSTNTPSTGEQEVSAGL
Description: CCR2 receptor occupancy / MCP-1-induced CCR2 internalization in PBMCs, flow cytometry. It is filed as cell-based. As for the experimental part: as §1

The target of assay [2] is T1, CCR5. Description: Inhibition of ligand binding to CCR5-expressing CHO cells.

Here are results for four compounds from patent US20200368247A1, “CENICRIVIROC FOR THE TREATMENT OF FIBROSIS” (Tobira Therapeutics, Inc., priority 2014, published 2020).

T1 sequence (P51681 whole entry): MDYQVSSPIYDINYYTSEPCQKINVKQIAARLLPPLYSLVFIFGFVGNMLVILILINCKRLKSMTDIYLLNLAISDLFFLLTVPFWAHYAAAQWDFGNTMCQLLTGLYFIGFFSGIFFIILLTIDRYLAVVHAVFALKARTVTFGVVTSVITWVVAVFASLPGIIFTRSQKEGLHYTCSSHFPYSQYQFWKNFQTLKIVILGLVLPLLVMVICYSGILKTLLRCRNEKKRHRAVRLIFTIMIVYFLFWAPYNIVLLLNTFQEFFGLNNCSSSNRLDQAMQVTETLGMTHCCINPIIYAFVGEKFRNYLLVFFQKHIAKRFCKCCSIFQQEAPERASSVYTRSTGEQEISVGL

On to Maraviroc [MVC], for which the CCR5 receptor occupancy is about 86% on CCR5 [1] (CD4+ T cells) and about 87% on CCR5 [1] (CD8+ T cells). Besides, in the assay on HIV-1 BaL (CVC 20 nM, MVC 50 nM, baseline 506), the “p24 antigen level in culture fluids” value is 520 ng/mL. The “relative intracellular strong-stop HIV DNA level compared to no drug control” value in the assay on HIV-1 BaL (PM-1 cells) was 0.02.

Regarding `CSc1ccc(C(=O)N[C@@H]2CCCC[C@@H]2NC(=O)CNC(=O)c2cc(C(F)(F)F)ccc2NC(=O)NC(C)C)cc1` [BMS-22, reference compound], the “concentration required to reach >80% receptor occupancy” value at CCR2 (CCR2, average) worked out at 18 nM. Moreover, the CCR2 cell-surface expression result at CCR2 (in the absence of MCP-1, monocytes) was “slightly increased”.

In the case of `CCCCOCCOc1ccc(-c2ccc3c(c2)C=C(C(=O)Nc2ccc(SC)cc2)CCCN3CC(C)C)cc1` [M-II], the “IC50, inhibition of binding of RANTES to CCR5-expressing cells” value at CCR5 [2] (CHO cells) is “no effect”.

`CCCCOCCOc1ccc(-c2ccc3c(c2)C=C(C(=O)Nc2ccc(S(=O)(=O)Cc4cncn4CCC)cc2)CCCN3CC(C)C)cc1` [M-I]: the “IC50 relative to the IC50 of CVC” value on CCR5 [2] (RANTES binding to CCR5-expressing cells) was “approximately 2 fold”.
